We go through 13 compounds from the supplement of paper PMC11061612.

Experiment [1] has as its system U-698-M. The experiment can be described thus: Bliss excess, mean over the matrix (fraction); higher = more synergy. The following applies: U-[…], B-Cell Non-Hodgkin's Lymphoma. The procedure, abridged: (§1)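 Cell lines grown in DMEM/F12 or RPMI with 10% FBS were plated in 1536-well plates and held 24 hours at 37°C, 5% CO2 before 72 hours of exposure to two-drug dose matrices, with DMSO typically at 0.2%. CellTiter-Glo 2.0 luminescence gave viability, which was converted to inhibition. Vehicle wells were set to 0 and blank wells to 1. Combination Emax is the second-highest inhibition in the matrix, and Bliss excess is the observed combination effect minus the expected EA + EB − EA·EB, where EA and EB are the single-agent effects.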

Experiment [2] has as its system U-698-M. The experiment can be described thus: combination Emax (second highest fraction inhibited in the dose matrix, 72 h); higher = more inhibition. The settings on record: B-Cell Non-Hodgkin's Lymphoma. In a few lines:
as §1

The mark [3] stands for this setting: first compound max 10 µM, partner max 1 µM, 7x7.
Where [4] appears, read: first compound max 10 µM, partner max 10 µM, 7x7.
[5] abbreviates: first compound max 1 µM, partner max 10 µM, 7x7.
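Throughout, for Bliss excess, mean over the matrix: after 72 h of two-drug dosing.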

Take `O=C(c1cc(Cc2n[nH]c(=O)c3ccccc23)ccc1F)N1CCN(C(=O)C2CC2)CC1` [Olaparib] + CC1(C)CCC(CN2CCN(c3ccc(C(=O)NS(=O)(=O)c4ccc(NCC5CCOCC5)c([N+](=O)[O-])c4)c(Oc4cnc5[nH]ccc5c4)c3)CC2)=C(c2ccc(Cl)cc2)C1 [Venetoclax]: in the experiment on U-698-M [1] (setting [3]), the Bliss excess was -0.0064. In the experiment with U-698-M [2] (setting [3]), the “combination Emax” value is 0.192.

On to `O=C(c1cc(Cc2n[nH]c(=O)c3ccccc23)ccc1F)N1CCN(C(=O)C2CC2)CC1` [Olaparib] + CN(CC[C@H](CSC1=CC=CC=C1)NC2=C(C=C(C=C2)S(=O)(=O)NC(=O)C3=CC=C(C=C3)N4CCC(CC4)[C@H](C5=CC=CC=C5C6=CC=C(C=C6)Cl)O)S(=O)(=O)C(F)(F)F)CCO [AZD4320], for which, in the experiment with U-698-M [1] (setting [3]), the Bliss excess was -0.0494. The “combination Emax” value in the experiment with U-698-M [2] (setting [3]) turned out to be 0.135.

As for `O=C(c1cc(Cc2n[nH]c(=O)c3ccccc23)ccc1F)N1CCN(C(=O)C2CC2)CC1` [Olaparib] + COc1nnc2ccc(N3CCC(c4ccc(OCCN5CCN(C)C(=O)[C@H]5C)cc4)CC3)nn12 [AZD5153], the Bliss excess in the experiment on U-698-M [1] (setting [3]) is -0.0374. Also, the “combination Emax” value in the experiment with U-698-M [2] (setting [3]) worked out at 0.578.

As to `O=C(c1cc(Cc2n[nH]c(=O)c3ccccc23)ccc1F)N1CCN(C(=O)C2CC2)CC1` [Olaparib] + Cc1c2c(nn1C)CSCc1cc(n(C)n1)CSc1cc(c3ccccc3c1)OCCCc1c(C(=O)O)n(C)c3c-2c(Cl)ccc13 [AZD5991], in the experiment with U-698-M [1] (setting [3]), the Bliss excess was 0.0244. Moreover, in the experiment on U-698-M [2] (setting [3]), the “combination Emax” value amounted to 0.987.

Regarding `CC(=O)c1c(C)c2cnc(Nc3ccc(N4CCNCC4)cn3)nc2n(C2CCCC2)c1=O` [Palbociclib] + CC1(C)CCC(CN2CCN(c3ccc(C(=O)NS(=O)(=O)c4ccc(NCC5CCOCC5)c([N+](=O)[O-])c4)c(Oc4cnc5[nH]ccc5c4)c3)CC2)=C(c2ccc(Cl)cc2)C1 [Venetoclax], in the experiment on U-698-M [1] (setting [3]), the Bliss excess is -0.0676. Besides, the “combination Emax” value in the experiment on U-698-M [2] (setting [3]) was found to be 0.548.

Turning to `CC(=O)c1c(C)c2cnc(Nc3ccc(N4CCNCC4)cn3)nc2n(C2CCCC2)c1=O` [Palbociclib] + Cc1c2c(nn1C)CSCc1cc(n(C)n1)CSc1cc(c3ccccc3c1)OCCCc1c(C(=O)O)n(C)c3c-2c(Cl)ccc13 [AZD5991], the Bliss excess with U-698-M [1] (setting [3]) was -0.0228. Further, the “combination Emax” value in the experiment with U-698-M [2] (setting [3]) amounted to 0.98.

In the case of `CC(=O)c1c(C)c2cnc(Nc3ccc(N4CCNCC4)cn3)nc2n(C2CCCC2)c1=O` [Palbociclib] + Cn1cnc2c(F)c(Nc3ccc(Br)cc3Cl)c(C(=O)NOCCO)cc21 [Selumetinib], the Bliss excess in the experiment with U-698-M [1] (setting [4]) was -0.0483. Besides, the “combination Emax” value with U-698-M [2] (setting [4]) is 0.583.

As for `COc1cccc(OCCCN)c1-c1cc(Nc2cnc(C#N)cn2)n[nH]1` [Prexasertib] + C=CCn1c(=O)c2cnc(Nc3ccc(N4CCN(C)CC4)cc3)nc2n1-c1cccc(C(C)(C)O)n1 [AZD1775], the Bliss excess with U-698-M [1] (first compound max 1 µM, partner max 1 µM) was found to be 0.0762. In addition, in the experiment with U-698-M [2] (first compound max 1 µM, partner max 1 µM, may be a limit of the assay), the “combination Emax” value came to 1.

For `COc1cccc(OCCCN)c1-c1cc(Nc2cnc(C#N)cn2)n[nH]1` [Prexasertib] + CCc1c2c(nc3ccc(O)cc13)-c1cc3c(c(=O)n1C2)COC(=O)[C@]3(O)CC [SN-38], the Bliss excess in the experiment with U-698-M [1] (first compound max 1 µM, partner max 0.3 µM, 7x7) came to 0.0237. Besides, the “combination Emax” value in the experiment on U-698-M [2] (first compound max 1 µM, partner max 0.3 µM, 7x7, may be a limit of the assay) is 1.

As for `COc1cccc(OCCCN)c1-c1cc(Nc2cnc(C#N)cn2)n[nH]1` [Prexasertib] + CN(C)CCCOc1ccc(-c2ccc3ncc4c(c3c2)n(C2CCOCC2)c(=O)n4C)cn1 [AZD0156], in the experiment on U-698-M [1] (first compound max 1 µM, partner max 1 µM, 7x7), the Bliss excess is 0.0361. Moreover, the “combination Emax” value with U-698-M [2] (first compound max 1 µM, partner max 1 µM, 7x7, may be a limit of the assay) came to 1.

As to `COc1cccc(OCCCN)c1-c1cc(Nc2cnc(C#N)cn2)n[nH]1` [Prexasertib] + C[C@@H]1COCCN1C2=NC(=NC(=C2)C3(CC3)[S@](=N)(=O)C)C4=C5C=CNC5=NC=C4 [AZD6738], the Bliss excess in the experiment on U-698-M [1] (setting [5]) is -0.0348. Besides, the “combination Emax” value with U-698-M [2] (setting [5]) was 0.996.

As to `COc1cccc(OCCCN)c1-c1cc(Nc2cnc(C#N)cn2)n[nH]1` [Prexasertib] + Cc1cc2ncnn2cc1Nc1ncc2c(n1)n(C1CCOCC1)c(=O)n2C [AZD7648], in the experiment on U-698-M [1] (setting [5]), the Bliss excess is -0.0029. The “combination Emax” value in the experiment on U-698-M [2] (setting [5]) turned out to be 0.975.

In the case of `COc1cccc(OCCCN)c1-c1cc(Nc2cnc(C#N)cn2)n[nH]1` [Prexasertib] + O=C(c1cc(Cc2n[nH]c(=O)c3ccccc23)ccc1F)N1CCN(C(=O)C2CC2)CC1 [Olaparib], in the experiment on U-698-M [1] (setting [5]), the Bliss excess was -0.0433. Also, in the experiment on U-698-M [2] (setting [5]), the “combination Emax” value came to 0.953.
